In ChEMBL document CHEMBL3046389, “Synthesis and biological evaluation of novel hydroquinone dimethyl ethers as potential anticancer and antimicrobial agents” (2013):
Values after ≈ are worked out from the molar mass of the structure shown.

What was measured:
Assay type in all cases: functional
HOP-62 [1] = test: Anticancer activity against Homo sapiens (human) HOP62 cells after 48 hr by SRB assay; conditions: HOP-62, 48 h; for CC50: read-out: LC50 (the source's name)
A549 = test: Anticancer activity against Homo sapiens (human) A549/ATCC cells after 48 hr by SRB assay; conditions: A549, 48 h; for CC50: read-out: LC50 (the source's name)
MOLT-4 = test: Anticancer activity against Homo sapiens (human) MOLT4 cells after 48 hr by SRB assay; conditions: MOLT-4, 48 h; for CC50: read-out: LC50 (the source's name)
HCC 2998 [2] = test: Growth inhibition of Homo sapiens (human) HCC2998 cells at 10 uM after 48 hr by SRB assay; conditions: HCC 2998, 48 h, read-out: GI
BT-549 = test: Growth inhibition of Homo sapiens (human) BT549 cells at 10 uM after 48 hr by SRB assay; conditions: BT-549, 48 h, read-out: GI
Hs-578T = test: Growth inhibition of Homo sapiens (human) Hs 578T cells at 10 uM after 48 hr by SRB assay; conditions: read-out: GI
MCF7 = test: Growth inhibition of Homo sapiens (human) MCF7 cells at 10 uM after 48 hr by SRB assay; conditions: MCF7, 48 h, read-out: GI
PC-3 = test: Growth inhibition of Homo sapiens (human) PC3 cells at 10 uM after 48 hr by SRB assay; conditions: PC-3, 48 h, read-out: GI
UO-31 = test: Growth inhibition of Homo sapiens (human) UO31 cells at 10 uM after 48 hr by SRB assay; conditions: UO-31, 48 h, read-out: GI
SN12C = test: Growth inhibition of Homo sapiens (human) SN12C cells at 10 uM after 48 hr by SRB assay; conditions: read-out: GI
LOX IMVI [3] = test: Anticancer activity against Homo sapiens (human) LOXIMVI cells after 48 hr by SRB assay; conditions: for CC50: read-out: LC50 (the source's name)
SF-539 = test: Anticancer activity against Homo sapiens (human) SF539 cells after 48 hr by SRB assay; conditions: SF-539, 48 h; for CC50: read-out: LC50 (the source's name)
KM12 [4] = test: Anticancer activity against Homo sapiens (human) KM12 cells after 48 hr by SRB assay; conditions: KM12, 48 h; for CC50: read-out: LC50 (the source's name)
HCT-15 = test: Anticancer activity against Homo sapiens (human) HCT15 cells after 48 hr by SRB assay; conditions: HCT-15, 48 h; for CC50: read-out: LC50 (the source's name)
HCT-116 = test: Anticancer activity against Homo sapiens (human) HCT116 cells after 48 hr by SRB assay; conditions: HCT-116, 48 h; for CC50: read-out: LC50 (the source's name)
HCC 2998 [5] = test: Anticancer activity against Homo sapiens (human) HCC2998 cells after 48 hr by SRB assay; conditions: HCC 2998, 48 h; for CC50: read-out: LC50 (the source's name)
NCI-H23 = test: Growth inhibition of Homo sapiens (human) NCI-H23 cells at 10 uM after 48 hr by SRB assay; conditions: NCI-H23, 48 h, read-out: GI
HOP-62 [6] = test: Growth inhibition of Homo sapiens (human) HOP62 cells at 10 uM after 48 hr by SRB assay; conditions: HOP-62, 48 h, read-out: GI
Staphylococcus aureus = test: Antimicrobial activity against Staphylococcus aureus DSM 1104 after 48 hr by two-fold serial broth dilution method; conditions: DSM 1104, 48 h
TK-10 = test: Anticancer activity against Homo sapiens (human) TK10 cells after 48 hr by SRB assay; conditions: TK-10, 48 h; for CC50: read-out: LC50 (the source's name)
CAKI-1 = test: Anticancer activity against Homo sapiens (human) CAKI-1 cells after 48 hr by SRB assay; conditions: CAKI-1, 48 h; for CC50: read-out: LC50 (the source's name)
786-0 = test: Anticancer activity against Homo sapiens (human) 786-0 cells after 48 hr by SRB assay; conditions: 786-0, 48 h; for CC50: read-out: LC50 (the source's name)
NCI/ADR-RES = test: Anticancer activity against Homo sapiens (human) NCI/ADR-RES cells after 48 hr by SRB assay
OVCAR-5 = test: Anticancer activity against Homo sapiens (human) OVCAR5 cells after 48 hr by SRB assay; conditions: OVCAR-5, 48 h; for CC50: read-out: LC50 (the source's name)
OVCAR-8 = test: Anticancer activity against Homo sapiens (human) OVCAR8 cells after 48 hr by SRB assay; conditions: OVCAR-8, 48 h
OVCAR-3 = test: Anticancer activity against Homo sapiens (human) OVCAR3 cells after 48 hr by SRB assay; conditions: OVCAR-3, 48 h
IGROV-1 = test: Anticancer activity against Homo sapiens (human) IGROV1 cells after 48 hr by SRB assay; conditions: IGROV-1, 48 h
M14 = test: Anticancer activity against Homo sapiens (human) M14 cells after 48 hr by SRB assay; conditions: M14, 48 h
Escherichia coli = test: Antimicrobial activity against Escherichia coli ATCC 11775 after 48 hr by two-fold serial broth dilution method; conditions: ATCC 11775, 48 h
Malme-3M = test: Growth inhibition of Homo sapiens (human) MALME-3M cells at 10 uM after 48 hr by SRB assay; conditions: read-out: GI
LOX IMVI [7] = test: Growth inhibition of Homo sapiens (human) LOXIMVI cells at 10 uM after 48 hr by SRB assay; conditions: read-out: GI
SF-295 = test: Growth inhibition of Homo sapiens (human) SF295 cells at 10 uM after 48 hr by SRB assay; conditions: SF-295, 48 h, read-out: GI
KM12 [8] = test: Growth inhibition of Homo sapiens (human) KM12 cells at 10 uM after 48 hr by SRB assay; conditions: KM12, 48 h, read-out: GI
SR = test: Anticancer activity against Homo sapiens (human) SR cells after 48 hr by SRB assay

Structure (SMILES): COc1ccc(OC)c(/C=C/C(=O)N/N=C/c2ccccc2)c1
- GI50 (HOP-62 [1]): 4.95 µM
- TGI (HOP-62 [1]): > 100 µM
- CC50 (HOP-62 [1]): > 100 µM
- GI50 (A549): 4.29 µM
- TGI (A549): > 100 µM
- CC50 (A549): > 100 µM
- GI50 (MOLT-4): 4.45 µM
- TGI (MOLT-4): > 100 µM
- CC50 (MOLT-4): > 100 µM
- inhibition of growth at 10 µM (HCC 2998 [2]): 33.6%
- inhibition of growth at 10 µM (BT-549): 39.2%
- inhibition of growth at 10 µM (Hs-578T): 33.5%
- inhibition of growth at 10 µM (MCF7): 82.7%
- inhibition of growth at 10 µM (PC-3): 36.5%
- inhibition of growth at 10 µM (UO-31): 43.4%
- inhibition of growth at 10 µM (SN12C): 47.9%
- GI50 (LOX IMVI [3]): 4.11 µM
- TGI (LOX IMVI [3]): > 100 µM
- CC50 (LOX IMVI [3]): > 100 µM
- GI50 (SF-539): 4.42 µM
- TGI (SF-539): 25.1 µM
- CC50 (SF-539): > 100 µM
- GI50 (KM12 [4]): 0.834 µM
- TGI (KM12 [4]): 3.75 µM
- CC50 (KM12 [4]): 29.4 µM
- GI50 (HCT-15): 3.62 µM
- TGI (HCT-15): > 100 µM
- CC50 (HCT-15): > 100 µM
- GI50 (HCT-116): 2.64 µM
- TGI (HCT-116): 10.2 µM
- CC50 (HCT-116): 67.2 µM
- GI50 (HCC 2998 [5]): 2.35 µM
- TGI (HCC 2998 [5]): 21 µM
- CC50 (HCC 2998 [5]): 94.5 µM
- inhibition of growth at 10 µM (NCI-H23): 34.9%
- inhibition of growth at 10 µM (HOP-62 [6]): 32.7%
- MBC (Staphylococcus aureus): 100 µg/mL (≈ 322 µM)
- MIC (Staphylococcus aureus): 100 µg/mL (≈ 322 µM)
- GI50 (TK-10): 16.6 µM
- TGI (TK-10): > 100 µM
- CC50 (TK-10): > 100 µM
- GI50 (CAKI-1): 0.443 µM
- TGI (CAKI-1): 6.66 µM
- CC50 (CAKI-1): > 100 µM
- GI50 (786-0): 7 µM
- TGI (786-0): 72.5 µM
- CC50 (786-0): > 100 µM
- GI50 (NCI/ADR-RES): 1.46 µM
- LC50 (NCI/ADR-RES): > 100 µM
- TGI (NCI/ADR-RES): 4.29 µM
- GI50 (OVCAR-5): 18 µM
- TGI (OVCAR-5): > 100 µM
- CC50 (OVCAR-5): > 100 µM
- GI50 (OVCAR-8): 5.44 µM
- LC50 (OVCAR-8): > 100 µM
- TGI (OVCAR-8): 94.6 µM
- GI50 (OVCAR-3): 3.15 µM
- LC50 (OVCAR-3): > 100 µM
- TGI (OVCAR-3): > 100 µM
- GI50 (IGROV-1): 1.51 µM
- LC50 (50% lethal concentration) (IGROV-1): > 100 µM
- TGI (IGROV-1): > 100 µM
- GI50 (M14): 2.16 µM
- LC50 (M14): > 100 µM
- TGI (M14): 6.77 µM
- MBC (Escherichia coli): 50 µg/mL (≈ 161 µM)
- MIC (Escherichia coli): 50 µg/mL (≈ 161 µM)
- inhibition of growth at 10 µM (Malme-3M): 41%
- inhibition of growth at 10 µM (LOX IMVI [7]): 57.9%
- inhibition of growth at 10 µM (SF-295): 51.5%
- inhibition of growth at 10 µM (KM12 [8]): 69%

Structure (SMILES): COc1ccc(OC)c(/C=C/c2nnc(S)n2-c2ccc(Cl)cc2)c1
- GI50 (HOP-62 [1]): 6.48 µM
- TGI (HOP-62 [1]): > 100 µM
- CC50 (HOP-62 [1]): > 100 µM
- GI50 (A549): 9.07 µM
- TGI (A549): > 100 µM
- CC50 (A549): > 100 µM
- GI50 (SR): 4.56 µM
- TGI (SR): > 100 µM
- CC50 (SR; read-out: LC50 (the source's name)): > 100 µM
- GI50 (MOLT-4): 7.74 µM
- TGI (MOLT-4): > 100 µM
- CC50 (MOLT-4): > 100 µM
- inhibition of growth at 10 µM (HCC 2998 [2]): 54.4%
- inhibition of growth at 10 µM (BT-549): 32.8%
- inhibition of growth at 10 µM (MCF7): 68%
- inhibition of growth at 10 µM (PC-3): 41.4%
- inhibition of growth at 10 µM (UO-31): 52.9%
- inhibition of growth at 10 µM (SN12C): 33.8%
- GI50 (LOX IMVI [3]): 5.02 µM
- TGI (LOX IMVI [3]): > 100 µM
- CC50 (LOX IMVI [3]): > 100 µM
- GI50 (SF-539): 4.05 µM
- TGI (SF-539): 97.9 µM
- CC50 (SF-539): > 100 µM
- GI50 (KM12 [4]): 4.02 µM
- TGI (KM12 [4]): > 100 µM
- CC50 (KM12 [4]): > 100 µM
- GI50 (HCT-15): 4.39 µM
- TGI (HCT-15): > 100 µM
- CC50 (HCT-15): > 100 µM
- GI50 (HCT-116): 4.05 µM
- TGI (HCT-116): > 100 µM
- CC50 (HCT-116): > 100 µM
- GI50 (HCC 2998 [5]): 13.3 µM
- TGI (HCC 2998 [5]): > 100 µM
- CC50 (HCC 2998 [5]): > 100 µM
- inhibition of growth at 10 µM (NCI-H23): 51.3%
- MBC (Staphylococcus aureus): 100 µg/mL (≈ 267 µM)
- MIC (Staphylococcus aureus): 100 µg/mL (≈ 267 µM)
- GI50 (TK-10): 25.8 µM
- TGI (TK-10): > 100 µM
- CC50 (TK-10): > 100 µM
- GI50 (CAKI-1): 2.8 µM
- CC50 (CAKI-1): > 100 µM
- GI50 (786-0): 7.17 µM
- TGI (786-0): > 100 µM
- CC50 (786-0): > 100 µM
- GI50 (NCI/ADR-RES): 3.63 µM
- LC50 (NCI/ADR-RES): > 100 µM
- TGI (NCI/ADR-RES): > 100 µM
- GI50 (OVCAR-5): 70.3 µM
- TGI (OVCAR-5): > 100 µM
- CC50 (OVCAR-5): > 100 µM
- GI50 (OVCAR-8): 28.4 µM
- LC50 (OVCAR-8): > 100 µM
- TGI (OVCAR-8): > 100 µM
- GI50 (OVCAR-3): 3.34 µM
- LC50 (OVCAR-3): > 100 µM
- TGI (OVCAR-3): 21.4 µM
- GI50 (IGROV-1): 4.38 µM
- LC50 (50% lethal concentration) (IGROV-1): > 100 µM
- TGI (IGROV-1): > 100 µM
- GI50 (M14): 4.24 µM
- LC50 (M14): > 100 µM
- TGI (M14): > 100 µM
- MBC (Escherichia coli): 50 µg/mL (≈ 134 µM)
- MIC (Escherichia coli): 50 µg/mL (≈ 134 µM)
- inhibition of growth at 10 µM (Malme-3M): 70.2%
- inhibition of growth at 10 µM (SF-295): 68.8%
- inhibition of growth at 10 µM (KM12 [8]): 59.1%
